Laboratory results: publication PMC6155162, “Identification of mesothelioma-specific sialylated epitope recognized with monoclonal antibody SKM9-2 in a mucin-like membrane protein HEG1” (Scientific Reports, 2018)
Entries after “also recorded” stand apart in the source; their conditions may differ.

Legend:
[1] = test system: recombinant Agrocybe cylindracea lectin (rACG); experiment: SPR lectin binding analysis of SKMepmin3: rACG; conditions: non-treated SKMepmin3, rACG 5 µg/mL
Method: (§1) Figure 7 SPR analysis of bindings of lectin and SKM9-2 to glycosidase-treated SKMepmin3. Purified SKMepmin3 was incubated with α2-3 Neuraminidase S, Neuraminidase A, or Neuraminidase A + O-Glycosidase; and then was immobilized as a ligand on Ni^2+-binding sensor chip NTA. The analytes were used at a concentration of 5 µg/mL. (a) ABA, (b) Jacalin, (c) rACG, (d) SKM9-2. Glycosidase-digested sample was not tested in the experiment with rACG.
(§2) The binding of SKM9-2 or lectin to SKMepmin was measured by SPR analysis. SKMepmin was diluted with a running buffer (10 mM HEPES buffer (pH 8.1) containing 150 mM NaCl and 0.005% Tween-20), flowed on Ni^2+-binding sensor chip NTA (GE Healthcare), and affinity-bound through His-tag as a ligand on the sensor chip. Binding analysis of SKM9-2 was performed in a running buffer containing 50 µM EDTA. A non-treated flow cell was used as a reference cell. SKM9-2, anti-sialyl Lewis^X (CSLEX1, Becton, Dickinson and Company Japan, Tokyo, Japan), rACG (Wako Pure Chemical Industries), biotinylated ABA (J-Oil Mills, Inc., Tokyo, Japan), or biotinylated Jacalin (Vector Laboratories, Inc., Burlingame, CA, USA) (each 5 µg/mL) was injected as an analyte with the running buffer. As a regeneration buffer, 350 mM EDTA was used. The dissociation constant was calculated using the manufacturer’s instructions.

[2] = test system: anti-sialyl Lewis^X (CSLEX1); experiment: SPR analysis of binding of anti-sialyl LewisX to SKMepmin3; conditions: purified SKMepmin3 on sensor chip NTA, analyte 5 µg/mL
Method: as §2
Supplementary Fig. S2. SPR analysis of binding of anti-sialyl LewisX to SKMepmin3.
Purified SKMepmin3 was immobilized as a ligand on Ni2+-binding sensor chip NTA. The analytes
were used at the concentration of 5 µg/mL.

[3] = biological target: SKM9-2; experiment: SPR analysis of binding between SKM9-2 and soluble His-tagged minimum epitope peptides (SKMepmin)
Method: Figure 5 SPR analysis of the binding kinetics between SKM9-2 and mutants of minimum epitope. A soluble His-tagged mutant of minimum epitope (SKMepmin) was secreted from transfected HEK293T and immobilized as a ligand on the Ni^2+-binding sensor chip NTA. The upper sensorgrams show the binding kinetics of analyte (5 µg/mL of SKM9-2) to SKMepmins. The control without any peptide is shown as “No peptide” and the negative control peptide cycle is shown as “Control peptide”. The glycan-digested SKMepmin3 that was treated with Neuraminidase A and O-Glycosidase was used as the negative control peptide. The dissociation constant in the lower bar graph was calculated using the manufacturer’s instructions. RU, response units; Signal sequence, the artificial signal sequence (MAPLLLLLLPLLLLPPAAP).
as §1
(§3) Cell lysate or SKMepmin3 was treated with α2-3 Neuraminidase S, α2-3, 6, 8, 9 Neuraminidase A, and O-Glycosidase (New England Biolabs Japan, Tokyo, Japan) in 50 mM sodium phosphate (pH 7.5) containing 1% Nonidet P-40, according to the manufacturer’s instructions. The cell lysate sample was resolved by 4–15% or 6% SDS-PAGE under reducing conditions and detected by western blotting using SKM9-2. The analysis of the SKMepmin3 sample was performed by SPR.
as §2

[4] = test system: Agaricus bisporus agglutinin (ABA); experiment: SPR lectin binding analysis of glycosidase-treated SKMepmin3: ABA; conditions: ABA 5 µg/mL
Method: as §1, §3, §2

[5] = test system: Jacalin; experiment: SPR lectin binding analysis of glycosidase-treated SKMepmin3: Jacalin
Method: as §1, §3, §2

Question: How did the rACG binding [1] turn out when “MAPLLLLLLPLLLLPPAAPGGSKAPSLVSLPAGGDYKDDDDKHHHHHHHH [SKMepmin3, minimum glycosylation peptide 893-…-903 -FLAG-Hisx8 with two disialyl T at Ser893 and Ser900]” was run?
Answer: interacted

Question: And the “anti-sialyl Lewis^X antibody binding” value [2]?
Answer: did not bind; also recorded: not bound

Question: And the Kd ([3]; His-tagged SKMepmin secreted from transfected HEK293T immobilized on Ni2+-binding sensor chip NTA, analyte 5 µg/mL SKM9-2, running buffer 10 mM HEPES pH 8.1, 150 mM NaCl, 0.005% Tween-20, 50 µM EDTA, read-out: KD (M), dissociation constant)?
Answer: 2.82e-09 M

Question: And the “persistent binding of SKM9-2” value ([3]; SKMepmin3 desialylated with Neuraminidase A, SKM9-2 5 µg/mL)?
Answer: lost

Question: And the SKM9-2 binding ([3]; SKMepmin3 treated with α2–3 Neuraminidase S, SKM9-2 5 µg/mL)?
Answer: weakened

Question: What about the “association rate between SKM9-2 and epitope peptide (in words)” value ([3]; analyte 5 µg/mL SKM9-2, change caused by the substitution) of the same sequence?
Answer: increased

Question: What about the “interaction between SKM9-2 and SKMepmin3” value ([3]; complete digest of glycan using O-Glycosidase (with Neuraminidase A), SKM9-2 5 µg/mL) of the same sequence?
Answer: eliminated

Question: What about the ABA binding ([4]; SKMepmin3 deglycosylated with O-Glycosidase and Neuraminidase A) of the same sequence?
Answer: lost

Question: And the ABA binding ([4]; SKMepmin3 desialylated with Neuraminidase A)?
Answer: enhanced

Question: What about the ABA binding ([4]; non-treated SKMepmin3 as ligand) of the same sequence?
Answer: bound

Question: And the Jacalin binding ([5]; SKMepmin3 desialylated with Neuraminidase A, Jacalin 5 µg/mL)?
Answer: recognized

Question: And the Jacalin binding ([5]; deglycosylated SKMepmin3 (Neuraminidase A + O-Glycosidase), Jacalin 5 µg/mL)?
Answer: not

Question: What about the Jacalin binding ([5]; non-treated SKMepmin3, Jacalin 5 µg/mL) of the same sequence?
Answer: did not bind
